Experimental data published in US9365499B2, “9-aminomethyl substituted tetracycline compounds” (KBP Biosciences Co., Ltd., priority 2011, dated 2016).
Values after ≈ are worked out from the molar mass of the structure shown. Read-outs that look alike come from different tables or passages of the source. One block for each compound: values may come before it.

Legend:
Acinetobacter baumannii = experiment: antibacterial activity in vitro, agar dilution method; type: cell-based
Excerpt: (§1) The antibacterial spectrum and in vitro antibacterial activity of the compound of the present invention
(§2) Experimental method: the agar dilution method, with reference to Clinical And Laboratory Standards Institute. Methods for Dilution Antimicrobial Susceptibility Tests for Bacteria That Grow Aerobically; Approved Standard-Seventh Edition. CLSI Document M7-A7. Vol 26, no. 2, Wayne, Pa.: Clinical and Laboratory Standards Institute, 2006.
(§3) Wherein MIC represents the minimum inhibitory concentration, MIC90 represents the 90% inhibitory concentration.

Escherichia coli = experiment: as above; type: cell-based
Excerpt: as §1, §2, §3

Klebsiella pneumoniae = experiment: as above; type: cell-based
Excerpt: as §1, §2, §3

[1] = system: Methicillin-resistant Staphycoccus epidermidis (MRSE); experiment: as above; type: cell-based; details: Staphylococcus epidermidis, Table 2
Excerpt: as §1, §2, §3

[2] = system: Methicillin-resistant Staphylococcus aureus (MRSA); experiment: as above; type: cell-based
Excerpt: as §1, §2, §3

Streptococcus pyogenes = experiment: as above; type: cell-based; details: Table 2
Excerpt: as §1, §2, §3

[3] = system: Acinetobacter calcoaceticus; experiment: as above; type: cell-based; details: Table 4
Excerpt: as §1, §2, §3

Enterococcus faecalis = experiment: as above; type: cell-based; details: Table 4
Excerpt: as §1, §2, §3

Hemophilus influenzae = experiment: as above; type: cell-based; details: Haemophilus influenzae; Table 5; MIC90 = 90% inhibitory concentration
Excerpt: as §1, §2, §3

Staphylococcus aureus [4] = experiment: as above; type: cell-based
Excerpt: as §1, §2, §3

[5] = system: Streptococcus constellatus; experiment: as above; type: cell-based; details: Table 5, MIC90 = 90% inhibitory concentration
Excerpt: as §1, §2, §3

Streptococus agalactiae = experiment: as above; type: cell-based; details: Table 4
Excerpt: as §1, §2, §3

in vivo = experiment: in vivo; parameters: species or system male SD rats; details: male, SD, rat, 5 mg/kg
Description: Test animals: male SD rats, weighing 180-280 g, purchased from Beijing Vital River Laboratory Animal Technology Co., Ltd.; animal Certificate of Conformity: SCXK (Beijing) 2006-0009. Six rats were tested for each compound. the compounds of the present invention, prepared in accordance with the methods of above Examples, dissolved in physiological saline. tigecycline, dissolved in physiological saline. Administration of the compounds of the present invention: intravenous bolus injection (iv), dose: 5 mg/kg, administrating volume: 5 mL/kg; gavage (po), dose: 5 mg/kg, administrating volume: 5 mL/kg. Administration of tigecycline: gavage (po), dose: 10 mg/kg, administrating volume: 5 mL/kg. Prior to administration help but water fasting for 16 hours, 4 hours after administration to food. Compound 9: iv blood sampling time point: denoted by 0 min before administration, 5 min, 15 min, 30 min, 1 […] after administration; po blood sampling time point: denoted by 0 min before administration, 5 min, 15 min, 30 min, 1 […] after administration; Compound 20: iv blood sampling time point: 5 min, 15 min, 30 min, 1 […] after administration; po blood sampling time point: 10 min, 30 min, 1 […] after administration; Compound 23: iv blood sampling time point: denoted by 0 min before administration, 5 min, 15 min, 30 min, 1 […] after administration; po blood sampling time point: denoted by 0 min before administration, 5 min, 15 min, 30 min, 1 […] after administration; Tigecycline: iv blood sampling time point: 5 min, 15 min, 30 min, 1 h, 2 h, 4 h, 6 h, 8 h after administration; po blood sampling time point: 10 min, 30 min, 1 […] after administration. Each time point is taken around 100 μl whole blood and placed in a heparinized tube, centrifugated at 8000 rpm/min at 4° C. for 6 minutes in a low-temperature high-speed centrifuge to separate plasma, the resulting plasma was frozen at -80° C. refrigerator. Plasma samples analysis: 20 μl of plasma was taken and added 200 μl of internal standard solution, subjected to vortex for 3 minutes, then to centrifugation at 12,000 rpm/min for 5 minutes. 100 μl of supernatant was taken and analyzed using LC-MS/MS. Formula Absolute Bioavailability F%=[AUC](po)×Dose(iv)/[AUC](iv)×Dose(po)

Staphylococcus aureus [6] = experiment: bactericidal effects in vivo in neutropenic mouse thigh model with Staphylococcus aureus infection; parameters: species or system mice; details: for change values (24 h vs blank group mean 0 h) / log10 CFU for each thigh, mean ± standard deviations (24 h): 2 dose times, subcutaneous
Description: Bactericidal Effects of the Present Compounds In Vivo in Mouse Thigh Model with Staphylococcus aureus Infection SPF grade CD-1 (ICR) female mice housed in SPF environment, weighing 25±2 g, purchased from Beijing Vital River Laboratory Animal Technology Co., Ltd., licensed […] No: SCXK (Beijing) 2006-0009. Staphylococcus aureus: purchased from Shanghai Renji Hospital. Four days before bacterial infection, intraperitoneal (ip) injection of cyclophosphamide 150 mg/kg; 1 day before bacterial infection, intraperitoneal (ip) injection of cyclophosphamide 100 mg/kg; Picked fresh Staphylococcus aureus single colonies which were plate cultured for 18 h, and inoculated into broth and cultured at 35° C. for 18 h. The bacterial suspension was diluted with broth, and 0.5 McFarland turbidity standard indicator bacteria suspension was prepared with a McFarland turbiditor, 10-fold diluted with broth and injected into the thigh muscle of mice in an amount of 0.1 mL for each thigh. The concentration of the bacteria suspension was about 10^6-10^7 CFU/ml. The inoculum concentration was determined by an agar-plate count method. Blank Group: the animals were sacrificed by dislocation at 2 h (recorded as 0 h) after the inoculation of bacteria. Solvent group: The first administration time was set at 2 h (denoted as 0 h) after the animals were infected with bacteria, the solvent was subcutaneously administrated, the animals were sacrificed by dislocation at 24 h after the administration. Treatment group: The first administration time was set at 2 h (denoted as 0 h). […] The thigh muscle tissue was separated from the sacrificed animals, and 5 mL of sodium chloride injection was added, homogenated. The homogenate obtained were diluted series, taken 0.05 mL and inoculated to agar plates, two plates were inoculated in parallel for each gradient bacterial suspension, and incubated at 35° C. for 18 h. Observe the growth of the colonies on each plate, and select the plates with the number of colonies between 30-300 for colony count. The number of colonies was recorded as n1, n2. N represents the diluted fold. The number of colonies (units CFU) for each thigh was calculated according to the formula of “(n1+n2)/2/0.05×5×N”. A logarithm to the base 10 for the number of colonies of each thigh was calculated to obtain log10 CFU value for each thigh.

[7] = Table 5, MIC90 = 90% inhibitory concentration

MIC (Acinetobacter baumannii; Table 2, agar dilution, read-out: antibacterial activity MIC, Acinetbacter baumannii): 4 µg/mL (≈ 6.77 µM) | MIC (Escherichia coli; Table 2): 1 µg/mL (≈ 1.69 µM) | MIC (Klebsiella pneumoniae; Table 2): 2 µg/mL (≈ 3.39 µM) | MIC [1]: 0.5 µg/mL (≈ 0.847 µM) | MIC ([2]; Table 2, agar dilution): 1 µg/mL (≈ 1.69 µM) | MIC (Streptococcus pyogenes): 0.125 µg/mL (≈ 0.212 µM)
Compound: CN(C)c1cc(CNCC2CC(F)(F)C2)c(O)c2c1C[C@H]1C[C@H]3[C@H](N(C)C)C(O)=C(C(N)=O)C(=O)[C@@]3(O)C(O)=C1C2=O [Compound 10, (4S,4aS,5aR,12aS)-9-(((3,3-difluorocyclobutyl)methylamino)methyl)-4,7-bis(dimethylamino)-3,10,12,12a-tetrahydroxy-1,11-dioxo-1,4,4a,5,5a,6,11,12a-octahydrotetracene-2-carboxamide]

MIC (Acinetobacter baumannii; Table 4, agar dilution, read-out: antibacterial activity MIC, Acinetobacter baumannii): 1 µg/mL (≈ 1.81 µM) | MIC90 (Acinetobacter baumannii; [7]): 2 µg/mL (≈ 3.62 µM) | MIC [3]: 0.125 µg/mL (≈ 0.226 µM) | MIC (Enterococcus faecalis): 0.06 µg/mL (≈ 0.109 µM) | MIC (Escherichia coli; Table 4): 0.25 µg/mL (≈ 0.452 µM) | MIC90 (Hemophilus influenzae): 0.5 µg/mL (≈ 0.905 µM) | MIC (Klebsiella pneumoniae; Table 4): 1 µg/mL (≈ 1.81 µM) | MIC ([2]; Table 4, agar dilution): 0.25 µg/mL (≈ 0.452 µM) | MIC90 [2, 7]: 0.5 µg/mL (≈ 0.905 µM) | MIC90 (Staphylococcus aureus [4]; Staphylococcus aureus, Table 5, MIC90 = 90% inhibitory concentration): 0.25 µg/mL (≈ 0.452 µM) | MIC (Staphylococcus aureus [4]; Table 10, Staphylococcus aureus of the thigh model): 0.25 µg/mL (≈ 0.452 µM) | MIC90 [5]: 0.125 µg/mL (≈ 0.226 µM) | MIC (Streptococus agalactiae): 0.06 µg/mL (≈ 0.109 µM) | AUC(0-inf) (in vivo; iv): 9110 ng·h/mL | Vd (in vivo; iv): 5 L/kg | clearance (in vivo; iv): 9.33 mL/min/kg | half-life (in vivo; iv): 9.94 h | AUC(0-inf) (in vivo; po): 2000 ng·h/mL | Cmax (in vivo; po): 199 ng/mL | Tmax (in vivo; po): 1 h | bioavailability (in vivo; po): 22%
Compound: CN(C)c1cc(CN2CC3CC3C2)c(O)c2c1C[C@H]1C[C@H]3[C@H](N(C)C)C(O)=C(C(N)=O)C(=O)[C@@]3(O)C(O)=C1C2=O (stereo partly drawn) [Compound 23, (4S,4aS,5aR,12aS)-9-(3-azabicyclo[3.1.0]hexan-3-ylmethyl)-4,7-bis(dimethylamino)-3,10,12,12a-tetrahydroxy-1,11-dioxo-1,4,4a,5,5a,6,11,12a-octahydrotetracene-2-carboxamide]
change values (24 h vs blank group mean 0 h) (Staphylococcus aureus [6]; 2 mg/kg/day): 1.28 log10 CFU | log10 CFU for each thigh, mean ± standard deviations (24 h) (Staphylococcus aureus [6]; 2 mg/kg/day): 7.67 ± 0.17 log10 CFU | bacteria reducing value of each thigh (Staphylococcus aureus [6]; 6 mg/kg/day): 0.12 | bactericidal effect against Staphylococcus aureus in vivo in mice (Staphylococcus aureus [6]; 6 mg/kg/day): had bactericidal effect | change values (24 h vs blank group mean 0 h) (Staphylococcus aureus [6]; 6 mg/kg/day): −0.12 log10 CFU | log10 CFU for each thigh, mean ± standard deviations (24 h) (Staphylococcus aureus [6]; 6 mg/kg/day): 6.27 ± 0.41 log10 CFU | change values (24 h vs blank group mean 0 h) (Staphylococcus aureus [6]; 18 mg/kg/day): −2.04 log10 CFU | log10 CFU for each thigh, mean ± standard deviations (24 h) (Staphylococcus aureus [6]; 18 mg/kg/day): 4.35 ± 0.45 log10 CFU
